Measured values taken from ChEMBL document CHEMBL1157492, “Discovery of potent and cell-active allosteric dual Akt 1 and 2 inhibitors” (Bioorg Med Chem Lett, 2008).
Activity calls are given as the source filed them. No cut-off for these calls is given here.

What was measured:
[1] = target: T1, RAC-beta serine/threonine-protein kinase (Homo sapiens, UniProt P31751); assay: Inhibition of Akt2 phosphorylation in human by C33a cells by IPKA assay; type: cell-based
[2] = target: T2, RAC-alpha serine/threonine-protein kinase (Homo sapiens, UniProt P31749); assay: Inhibition of Akt1 phosphorylation in human by C33a cells by IPKA assay; type: cell-based
T2 sequence (P31749 whole entry): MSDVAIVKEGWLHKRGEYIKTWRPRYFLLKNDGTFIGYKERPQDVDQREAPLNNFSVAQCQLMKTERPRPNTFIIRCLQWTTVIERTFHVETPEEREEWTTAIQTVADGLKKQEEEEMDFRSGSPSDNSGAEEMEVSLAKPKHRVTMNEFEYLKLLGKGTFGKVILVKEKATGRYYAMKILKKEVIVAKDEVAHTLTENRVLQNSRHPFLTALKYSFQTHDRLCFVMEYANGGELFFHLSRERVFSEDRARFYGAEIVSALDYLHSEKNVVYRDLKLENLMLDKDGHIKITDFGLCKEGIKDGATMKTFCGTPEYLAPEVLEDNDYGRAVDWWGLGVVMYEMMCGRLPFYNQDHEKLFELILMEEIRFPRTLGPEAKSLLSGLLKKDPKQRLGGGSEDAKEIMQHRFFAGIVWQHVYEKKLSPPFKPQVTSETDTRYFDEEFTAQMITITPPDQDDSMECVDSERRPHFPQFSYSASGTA

[3] = target: T1, RAC-beta serine/threonine-protein kinase; assay: Inhibition of Akt2 phosphorylation by HTRF assay
[4] = target: T2, RAC-alpha serine/threonine-protein kinase; assay: Inhibition of Akt1 phosphorylation by HTRF assay

T1 sequence (P31751 whole entry): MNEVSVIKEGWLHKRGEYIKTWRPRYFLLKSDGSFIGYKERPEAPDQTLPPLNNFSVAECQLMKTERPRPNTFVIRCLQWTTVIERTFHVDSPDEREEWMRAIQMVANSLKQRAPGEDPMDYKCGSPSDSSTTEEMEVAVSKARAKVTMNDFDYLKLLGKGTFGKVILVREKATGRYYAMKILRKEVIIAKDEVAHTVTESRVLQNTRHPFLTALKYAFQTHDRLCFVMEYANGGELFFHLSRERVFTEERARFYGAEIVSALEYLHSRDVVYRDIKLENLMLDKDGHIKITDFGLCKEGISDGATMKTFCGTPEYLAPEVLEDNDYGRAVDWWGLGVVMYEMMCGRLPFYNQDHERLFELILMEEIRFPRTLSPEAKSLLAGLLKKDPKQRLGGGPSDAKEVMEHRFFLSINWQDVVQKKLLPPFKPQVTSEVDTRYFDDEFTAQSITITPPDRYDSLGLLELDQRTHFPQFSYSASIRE

| IC50 [1] | IC50 [2] | IC50 [3] | IC50 [4] | Activity [1] | Activity [2] | SMILES |
| --- | --- | --- | --- | --- | --- | --- |
| 125 nM | 75 nM | 47 nM | 17 nM |  |  | C[C@H]1CN(c2ncc3cc(-c4ccccc4)c(-c4ccc(CN5CCC(c6nnc(-c7ccccn7)[nH]6)CC5)cc4)nc3n2)CCN1 |
| 27 nM | 6 nM | 9 nM | 12 nM |  |  | CN1CC(N2CCN(c3ncc4cc(-c5ccccc5)c(-c5ccc(CN6CCC(c7nnc(-c8ccccn8)[nH]7)CC6)cc5)nc4n3)CC2)C1 |
| 41 nM | 17 nM | 31 nM | 9 nM |  |  | OCCN1CCN(c2ncc3cc(-c4ccccc4)c(-c4ccc(CN5CCC(c6nnc(-c7ccccn7)[nH]6)CC5)cc4)nc3n2)CC1 |
| 223 nM | 208 nM | 154 nM | 79 nM |  |  | CN(C)CCNc1ncc2cc(-c3ccccc3)c(-c3ccc(CN4CCC(c5nnc(-c6ccccn6)[nH]5)CC4)cc3)nc2n1 |
| 184 nM | 42 nM | 102 nM | 28 nM |  |  | C[C@@H]1CN(c2ncc3cc(-c4ccccc4)c(-c4ccc(CN5CCC(c6nnc(-c7ccccn7)[nH]6)CC5)cc4)nc3n2)C[C@H](C)O1 |
|  |  | 539 nM | 285 nM | inactive | inactive | CN1CCN(c2nccc3nc(-c4ccc(CN5CCC(c6nnc(-c7ccccn7)[nH]6)CC5)cc4)c(-c4ccccc4)cc23)CC1 |
| 388 nM | 78 nM |  |  |  |  | CSc1ncc2cc(-c3ccccc3)c(-c3ccc(CNCCC(=O)c4ccccc4N)cc3)nc2n1 |
| 168 nM | 17 nM | 45 nM | 7 nM |  |  | OC1CCN(c2ncc3cc(-c4ccccc4)c(-c4ccc(CN5CCC(c6nnc(-c7ccccn7)[nH]6)CC5)cc4)nc3n2)CC1 |
| 462 nM | 75 nM | 252 nM | 20 nM |  |  | FC1(F)CCN(c2ncc3cc(-c4ccccc4)c(-c4ccc(CN5CCC(c6nnc(-c7ccccn7)[nH]6)CC5)cc4)nc3n2)C1 |
| 243 nM | 19 nM | 43 nM | 5 nM |  |  | c1ccc(-c2cc3cnc(N4CCOCC4)nc3nc2-c2ccc(CN3CCC(c4nnc(-c5ccccn5)[nH]4)CC3)cc2)cc1 |
| 196 nM | 20 nM | 23 nM | 7 nM |  |  | CS(=O)(=O)N1CCN(c2ncc3cc(-c4ccccc4)c(-c4ccc(CN5CCC(c6nnc(-c7ccccn7)[nH]6)CC5)cc4)nc3n2)CC1 |
| 70 nM | 23 nM | 22 nM | 10 nM |  |  | CN(C)C1CCN(c2ncc3cc(-c4ccccc4)c(-c4ccc(CN5CCC(c6nnc(-c7ccccn7)[nH]6)CC5)cc4)nc3n2)CC1 |
| 44 nM | 36 nM | 25 nM | 8 nM |  |  | C[C@@H]1CN(c2ncc3cc(-c4ccccc4)c(-c4ccc(CN5CCC(c6nnc(-c7ccccn7)[nH]6)CC5)cc4)nc3n2)CCN1 |
| 421 nM | 61 nM | 67 nM | 25 nM |  |  | O[C@@H]1CN(c2ncc3cc(-c4ccccc4)c(-c4ccc(CN5CCC(c6nnc(-c7ccccn7)[nH]6)CC5)cc4)nc3n2)CCN1 |
| 19 nM | 3 nM | 6 nM | 6 nM |  |  | CN(C)CC(=O)N1CCN(c2ncc3cc(-c4ccccc4)c(-c4ccc(CN5CCC(c6nnc(-c7ccccn7)[nH]6)CC5)cc4)nc3n2)CC1 |
| 199 nM | 194 nM | 29 nM | 43 nM |  |  | C[C@@H]1CN[C@@H](C)CN1c1ncc2cc(-c3ccccc3)c(-c3ccc(CN4CCC(c5nnc(-c6ccccn6)[nH]5)CC4)cc3)nc2n1 |
| 101 nM | 46 nM | 77 nM | 45 nM |  |  | C[C@@H]1CN(c2ncc3cc(-c4ccccc4)c(-c4ccc(CN5CCC(c6nnc(-c7ccccn7)[nH]6)CC5)cc4)nc3n2)C[C@H](C)N1 |
| 133 nM | 924 nM | 59 nM | 740 nM |  |  | CN1CCN(c2cc3cc(-c4ccccc4)c(-c4ccc(CN5CCC(c6nnc(-c7ccccn7)[nH]6)CC5)cc4)nc3cn2)CC1 |
| 145 nM | 15 nM | 16 nM | 5 nM |  |  | CC(=O)N1CCN(c2ncc3cc(-c4ccccc4)c(-c4ccc(CN5CCC(c6nnc(-c7ccccn7)[nH]6)CC5)cc4)nc3n2)CC1 |
| 177 nM | 13 nM | 40 nM | 18 nM |  |  | CN(C)C(=O)N1CCN(c2ncc3cc(-c4ccccc4)c(-c4ccc(CN5CCC(c6nnc(-c7ccccn7)[nH]6)CC5)cc4)nc3n2)CC1 |
| 735 nM | 125 nM | 138 nM | 19 nM |  |  | c1ccc(-c2cc3cnc(N4CCn5cnnc5C4)nc3nc2-c2ccc(CN3CCC(c4nnc(-c5ccccn5)[nH]4)CC3)cc2)cc1 |
|  |  | 297 nM | 38 nM |  | inactive | O=S1(=O)CCN(c2ncc3cc(-c4ccccc4)c(-c4ccc(CN5CCC(c6nnc(-c7ccccn7)[nH]6)CC5)cc4)nc3n2)CC1 |
| 684 nM | 35 nM | 73 nM | 5 nM |  |  | c1ccc(-c2cc3cnc(-n4ccnc4)nc3nc2-c2ccc(CN3CCC(c4nnc(-c5ccccn5)[nH]4)CC3)cc2)cc1 |
| 52 nM | 36 nM | 27 nM | 9 nM |  |  | CN1CCN(c2ncc3cc(-c4ccccc4)c(-c4ccc(CN5CCC(c6nnc(-c7ccccn7)[nH]6)CC5)cc4)nc3n2)CC1 |
| 229 nM | 36 nM | 93 nM | 18 nM |  |  | c1ccc(-c2cc3cnc(N4CCCCC4)nc3nc2-c2ccc(CN3CCC(c4nnc(-c5ccccn5)[nH]4)CC3)cc2)cc1 |
|  |  | 3570 nM | 720 nM | inactive | inactive | CN1CCN(c2nccc3cc(-c4ccccc4)c(-c4ccc(CN5CCC(c6nnc(-c7ccccn7)[nH]6)CC5)cc4)nc23)CC1 |
